Measured values as given in patent US20090163442A1, “TREATMENT OF CANCER WITH 2-DEOXYGALACTOSE” (priority 2007, published 2009).
Several values for one entry are separate records, joined by “and”; a condition that tells them apart may be missing. Equal values may be shown once.

Columns and labels:
CD 1 mice = test: Liver toxicity study of 2-Fluoro-2-deoxygalactose, serum chemistry and clinical observations; type: in vivo; conditions: for Alt (alanine aminotransferase) / Ast (aspartate aminotransferase) / Tbili (total bilirubin): about 0.2 ml, male CD-1 mice, Day 2, individual animals
Description: The objective of this study was to evaluate the liver toxicity of 2-Fluoro-2-deoxygalactose when administered via intraperitoneal or intravenous injection to CD 1 mice. The study was initiated on Jan. 11, 2007, and consisted of three groups with three (3) male mice per group. On Day 1, each mouse GROUP was administered either about 0.2 ml of 10% 2 Fluoro 2 Deoxygalactose, intraperitoneally, about 0.2 ml of 10% 2 Fluoro 2 Deoxygalactose, intravenously, or about 0.2 ml of sterile 0.9% sodium chloride for injection, USP, intravenously. Criteria for evaluation included clinical observations and limited serum chemistry parameters (alanine aminotransferase [ALT], aspartate aminotransferase [AST], and total bilirubin). On Day 2, all animals were euthanized, blood was collected, and livers were collected and stored for potential histopathological evaluation.
Clinical observations were performed at least once daily.

normal liver tissue = test: Uptake of 2-Fluoro-2-deoxygalactose by normal liver tissue
[1] = tested on: tumor cell lines and types; conditions: Laszlo et al. 1958; cited from earlier work
tumor = conditions: cited from earlier work; for survival time / tumor growth: animal studies, Laszlo et al. 1960
[2] = tested on: hepatocellular carcinoma cell lines; test: Sulforhodamine B (SRB) growth inhibition assay; type: cell-based, Human; conditions: continuous treatment 72 h
Description: The cells are cultured at 37 degrees C. in a humidified atmosphere containing 5% CO2. For passaging, cells grown in 75 cm2 flasks (6070% confluency) are washed with PBS and dissolved from the flasks with trypsin (Gibco BRL) before being plated. Ten thousand cells are plated into each well of a 96-well microtiter plate in 100 ul of medium. The cells are then incubated for 24 h at 37 degrees C. in a humidified atmosphere containing 5% CO2 prior to exposure to the 2-DG analog or other anti-cancer agent. Cultures are treated with a range of concentrations of 2-DGaI or a 2-DGaI analog solubilized in cell culture medium, diluted 100× to the desired concentration, continuously for 72 h. Docetaxel (Taxotere™, Aventis Pharmaceuticals, Inc.) solubilized in 100% DMSO and diluted 1000× to the desired concentration, is used as a positive control. The sulforhodamine B (SRB) assay, a dye-based method for determining cell number by virtue of SRB binding to basic amino acids of cellular macromolecules, is employed to assess the growth inhibitory activity of 2-DGal or a 2-DGal analog.

[3] = tested on: liver tumor serially passaged in nude mice; test: Tumor growth delay study in a mouse xenograft model; type: in vivo; conditions: in combination with cisplatin (1 mg/kg i.p. days 1 to 5); 750 mg/kg orally twice daily; versus cisplatin alone
Source text: The efficacy of 2-DGaI or a 2-DGaI analog in combination with cisplatin can be compared with cisplatin alone in a tumor growth delay study in a mouse xenograft model. Small pieces of tumor, such as a liver tumor serially passaged in nude mice, are implanted subcutaneously in nude mice, and the tumors allowed to grow to 25 mm^2. Mice are then randomized to receive no treatment, treatment with 2-DGal or a 2-DGal analog alone, treatment with cisplatin alone, or treatment with both 2-DGal or a 2-DGaI analog and cisplatin. Cisplatin is dosed i.p. at 1 mg/kg on days 1 to 5.2-DGaI or a 2-DGaI analog is dosed orally at 750 mg/kg, twice daily, for the duration of the experiment. Each mouse is sacrificed when its tumor volume reaches 1000 mg.

O=C[C@H](F)[C@@H](O)[C@@H](O)[C@H](O)CO [2-Fluoro-2-deoxygalactose, 2-fluoro-2-deoxy-D-galactose]
concentration of transaminases (CD 1 mice; CD1 mice, intraperitoneally): increases in concentration of transaminases | Alt (alanine aminotransferase) (CD 1 mice; Group 2, 10% 2-Fluoro-2-deoxygalactose intraperitoneally): 109 U/L and 73 U/L and 72 U/L | Ast (aspartate aminotransferase) (CD 1 mice; Group 2, 10% intraperitoneally): 234 U/L and 114 U/L and 118 U/L | Tbili (total bilirubin) (CD 1 mice; Group 2, 10% intraperitoneally): 0.2 mg/dL (2×) and 0.3 mg/dL | Alt (alanine aminotransferase) (CD 1 mice; Group 3, 10% 2-Fluoro-2-deoxygalactose intravenously): 45 U/L and 124 U/L and 30 U/L | Ast (aspartate aminotransferase) (CD 1 mice; Group 3, 10% intravenously): 112 U/L and 116 U/L and 52 U/L | Tbili (total bilirubin) (CD 1 mice; Group 3, 10% intravenously): 0.2 mg/dL (2×) and 0.1 mg/dL | gross pathology finding (CD 1 mice; intraperitoneal administered group): gross pathology finding of a single animal | rise in ALT and AST over normal animals (CD 1 mice; intraperitoneal group, versus the two expected controls of Group 1): 2-3 × | unscheduled deaths (CD 1 mice; intraperitoneal or intravenous single injection, CD 1 mice): no unscheduled deaths | test article related clinical findings (CD 1 mice; intraperitoneal or intravenous single injection, clinical observations at least once daily): no adverse test article related clinical findings | elevated enzymes (ALT, AST) (CD 1 mice; intravenous group, at 24 hours): one animal with elevated enzymes at 24 hours and two that has returned to normal

O=C[C@H](O)[C@@H](O)[C@@H](O)[C@H](O)CO [galactose]
inhibition of uptake of 2-Fluoro-2-deoxygalactose (normal liver tissue): markedly inhibits the uptake

O=CC[C@@H](O)[C@H](O)[C@H](O)CO [2-DG, 2-Deoxy-D-glucose, reference compound]
inhibition of glycolysis [1]: inhibit glycolysis | tumor growth in animal models (tumor; Sokoloff 1955, Ball 1957): retard tumor growth | survival time (tumor): modest prolongation of survival time | tumor growth (tumor): inhibition of tumor growth

O=CC[C@@H](O)[C@@H](O)[C@H](O)CO [2-DGal, 2-Deoxy-D-galactose]
inhibition of glycolysis [1]: inhibit glycolysis | growth of hepatocellular carcinoma cell lines [2]: inhibits the growth | tumor growth delay [3]: delays tumor growth significantly more than treatment with cisplatin alone | survival time (tumor): modest prolongation of survival time | tumor growth (tumor): inhibition of tumor growth | efficacy relative to 2-DG (tumor; model systems of Laszlo et al. 1960): less efficacious
